According to patent US20100204158A1, “COMBINATION OF SPLENOPENTIN AND THYMOPENTIN AND THE USE THEREOF IN MEDICINE” (priority 2007, published 2010):
Residues, ends and D or L forms follow the SMILES beside them. No end group written: not given here.

Key:
HIV-1IIIB = assay: HIV-1 antiviral assay in CEM-SS cells (MTS readout); type: cell-based
HCMV strain AD169 = assay: HCMV plaque formation assay in MRC-5 cells; conditions: for inhibition of HCMV plaque formation as compared to the virus control experiment: 10 micrograms per ml, 7-10 days
[1] = tested on: hepatitis B virus (HBV) ayw strain; assay: HBV experimental assay system (HepG2-2.2.15, TaqMan PCR of secreted HBV DNA); type: cell-based; conditions: 10 micrograms per ml; HepG2-2.2.15, six days, HBV DNA by TaqMan PCR
Text: HepG2-2.2.15 is a stable cell line containing the hepatitis B virus (HBV) ayw strain genome (ATCC Cat. No. CRL-11997). Antiviral compounds blocking any late step of viral replication such as transcription, translation, pregenome encapsidation, reverse transcription, particle assembly and release can be identified and characterized using this cell line. In this assay, an active compound will reduce the production of secreted HBV from cells, measured by utilizing real time quantitative PCR (TaqMan) assay to directly and accurately measure HBV DNA copies.
HepG2-2.2.15 cells were plated in 96-well microtiter plates. After 16-24 hours the confluent monolayer of HepG2-2.2.15 cells was washed and the medium was replaced with complete medium containing test peptides—10 micrograms per ml—in duplicate. […] Six days following the initial administration of the peptides, the cell culture supernatants was collected, treated with pronase and DNAse and then used in a real-time quantitative TaqMan PCR assay. The PCR-amplified HBV DNA was detected in real-time by monitoring increases in fluorescence signals that result from the exonucleolytic degradation of a quenched fluorescence probe molecule that hybridizes to the amplified HBV DNA. […] Antiviral activity was calculated from the reduction in HBV DNA levels (% virus control). […]

murine spleen cells = assay: Th1/Th2 cytokine profiling assay (Ovalbumin-restimulated spleen cells, CBA kit); type: cell-based, Balb/c mice; conditions: 10 micrograms per ml, Ovalbumin restimulation, 72 hours
[2] = tested on: Primary Human endothelial cells (HUVEC); assay: Endothelial cell migration assay; type: cell-based; conditions: 10 micrograms per ml, 22 hours
HUVEC = assay: Endothelial tube formation assay; type: cell-based, human; conditions: 10 micrograms per ml, 20 hours
Text: Positive control was vehicle only.

Molecule | antiviral activity of positive control compounds (HIV-1) (HIV-1IIIB) | inhibition of HBV replication as compared to the virus control infection [1] | change of the production of TNF-alpha (in words) (murine spleen cells) | induction of the production of IL-2 (murine spleen cells) | induction of the production of IL-4 (murine spleen cells) | inhibition of the migration of human endothelial cells [2] | inhibition of the tube formation of human endothelial cells (HUVEC) | inhibition of HCMV plaque formation as compared to the virus control experiment (HCMV strain AD169) | further results
Cc1cn([C@H]2C[C@H](N=[N+]=[N-])[C@@H](CO)O2)c(=O)[nH]c1=O [AZT] | expected levels of antiviral activity | – | – | – | – | – | – | – | –
Nc1nc(O)c2ncn(COC(CO)CO)c2n1 [Ganciclovir, reference compound] | – | – | – | – | – | – | – | – | antiviral activity of positive control compound (HCMV) (HCMV strain AD169; positive control, HCMV AD169): expected levels of antiviral activity
CC(C)[C@H](NC(=O)[C@H](CC(=O)O)NC(=O)[C@H](CCCCN)NC(=O)[C@@H](N)CCCN=C(N)N)C(=O)N[C@@H](Cc1ccc(O)cc1)C(=O)O [Peptide 2, Arg-Lys-Asp-Val-Tyr-OH] (H-RKDVY-OH) | – | 6.2% | did not significantly change | 22.2% | 70.6% | 7% | 31% | 1.4% | decrease of the production of IFN-gamma (murine spleen cells): 38.0%; decrease of the production of IL-5 (murine spleen cells): 28.2%
CC(C)(C)NC(=O)[C@@H]1CN(Cc2cccnc2)CCN1C[C@@H](O)C[C@@H](Cc1ccccc1)C(=O)N[C@H]1c2ccccc2C[C@H]1O [indinavir] | expected levels of antiviral activity | – | – | – | – | – | – | – | –
Arg-Lys-Glu-Val-Tyr-OH (RKEVY-OH) [Peptide 1] | – | 19.5% | did not significantly change | 68.5% | 68.1% | did not inhibit | 22% | no effect | change of the production of IL-5 (in words) (murine spleen cells): did not significantly change; induction of the production of IFN-γ (murine spleen cells): 38.9%
